“Also recorded” adds a separate entry of the source.
What was measured:
[1] = test system: chinchilla model of SNHL; assay: R-PIA on round window membrane, chinchilla 4 kHz octave band noise, evoked potential hearing thresholds; type: in vivo
Description: (§1) FIG. 1 is a series of graphs which depicts our experimental work with R-PIA in a chinchilla model of SNHL. A 10^−4 M solution of R-PIA was placed on the round window membrane of chinchillas for thirty minutes and saline was placed as a control on round window membrane in the opposite-ear. After thirty minutes the fluids were removed, the surgical sites closed and the animals were exposed to 4 kHz octave band noise at 105 dB SPL for thirty minutes.

[2] = test system: inner and outer hair cells; assay: R-PIA on round window membrane, chinchilla 4 kHz octave band noise, inner and outer hair cell losses; type: in vivo; settings: 10^-4 M on round window membrane
Description: as §1, with “minutes. […] The details of this study have been submitted and recently accepted for publication in a peer-reviewed journal (5).” for “minutes.”

[3] = test system: inner and outer hair cells; assay: R-PIA on round window membrane, simulated M-16 impulse noise, missing hair cells; type: in vivo, Chinchilla; settings: 10^-4 M on round window membrane 30 min, 50-salvo volleys, vs saline control ear
[4] = test system: noise induced permanent hearing loss; assay: R-PIA on round window membrane, impulse noise, frequency specific evoked potential threshold shifts; type: in vivo, Chinchilla; settings: out to 20 days post-exposure
Description: FIGS. 3 & 4 illustrate data from Chinchilla exposed to simulated M-16 rifle fire impulse noise (50-salvo volleys). These animals received R-PIA treatment as outlined above (by the application of a dilute (10^−4 molar) solution of R-PIA directly onto the round window membrane for thirty minutes) with saline as a control on the round window membrane of the opposite ear. FIGS. 3 and 4 depict the percentage of missing inner and outer hair cells quantified in the inner ears of animals euthanized after the noise exposure. […] The results of both these tests show the frequency specific evoked potential threshold shifts from the same Chinchilla prior to and after noise exposure (out to 20 days post-exposure).

[5] = test system: noise induced hearing loss; assay: Oral rescue agent in an individual with noise induced hearing loss; type: in vivo, human; settings: 70 mg/kg by mouth, then 35 mg/kg QID for seven days; one patient
Description: FIG. 5 is a bar graph comparing the speech reception threshold values of an individual who suffered noise induced hearing loss before and after administration of an oral rescue agent. FIG. 6 is a bar graph comparing the word discrimination scores of an individual who suffered noise induced hearing loss before and after administration of an oral rescue agent. An Army Infantryman lost […] hearing protection in one ear during a live fire training evolution. […] received treatment in the form of ant initial dose of 70 mg/kg of L-N-acetyl cysteine (LNAC) by mouth followed by 35 mg/kg LNAC by mouth QID for seven days.

[6] = test system: idiopathic sensorineural hearing loss; assay: Treatment of individuals with sudden idiopathic sensorineural hearing loss (oral conventional therapy, then topical round window microcatheter); type: in vivo, human; settings: one patient each
Description: FIG. 7 is a bar graph comparing the speech reception threshold values of an individual who suffered an idiopathic sensorineural hearing loss before and after administration of a topical rescue agent.
FIG. 8 is a bar graph comparing the word discrimination scores of an individual who suffered an idiopathic sensorineural hearing loss before and after administration of a topical rescue agent.
FIG. 9 is a bar graph comparing the speech reception threshold values of another individual who suffered an idiopathic sensorineural hearing loss before and after administration of a topical rescue agent.
FIG. 10 is a bar graph comparing the word discrimination scores of another individual who suffered an idiopathic sensorineural hearing loss before and after administration of a topical rescue agent.
A Army Sergeant noted the sudden onset of a severe hearing loss and tinnitus in their left ear. They were initially given one week of conventional therapy with oral prednisone and a trial of close observation. They had no response to this treatment regimen and two weeks after experiencing the hearing loss they were treated with topical methylprednisolone. The topical methylprednisolone was administered in a round window microcatheter (IntraEar Corporation, Denver, Colo.) via a method developed by our group. The methylprednisolone was given in a concentration of 125 mg/ml. […]

[7] = test system: noise-induced cochlear damage; settings: cited from earlier work

## C[C@H](Cc1ccccc1)Nc1ncnc2c1ncn2[C@@H]1O[C@H](CO)[C@@H](O)[C@H]1O [R-PIA, R-N6-Phenylisopropyl adenosine]
[1]; 10^-4 M on round window membrane 30 min, vs saline control ears
  permanent hearing threshold shift / permanent hearing loss: significantly less permanent hearing threshold shift in R-PIA treated ears compared to saline treated ears at 4, 8 and 16 kHz; also recorded: significant reduction in permanent hearing loss
[1]; 10^-4 M on round window membrane 30 min before 4 kHz octave band noise 105 dB SPL, days 0, 1, 2, 4 and 20, vs saline ear
  recovery of hearing thresholds: faster and more complete recovery of hearing thresholds
[2]; both conditions
  inner hair cell losses: minimal
[2]; vs saline control ears
  reduction in outer hair cell loss: fourfold reduction; also recorded: four-fold reduction
[3]
  inner and outer hair cell loss: significant reduction of inner and outer hair cell loss
[4]; vs ears that received no treatment
  permanent hearing loss: reduction of permanent hearing loss in R-PIA treated ears as compared to ears that received no treatment
[4]; vs saline treated (control) ears, variety of frequencies
  permanent hearing loss: reduction of permanent hearing loss in R-PIA treated ears as compared to saline treated (control) ears

## CC(=O)N[C@@H](CS)C(=O)O [LNAC, L-N-acetyl cysteine]
[5]
  speech reception threshold: complete recovery
  word discrimination ability: complete recovery

## C[C@]12C=CC(=O)C=C1CC[C@@H]1[C@@H]2C(=O)C[C@@]2(C)[C@H]1CC[C@]2(O)C(=O)CO [prednisone]
[6]
  response of sudden hearing loss to conventional therapy: no response

## Oc1ncnc2[nH]ncc12 [allopurinol]
[7]; given before and during damaging noise exposure
  cochlear action potential and cochlear microphonic threshold shifts: attenuate cochlear action potential and cochlear microphonic threshold shifts

## CCCCS(=N)(=O)CCC(N)C(=O)O (stereo not drawn) [BSO, buthionine sulfoximine]
[7]; inhibition of GSH synthesis
  hair cell damage and hearing loss associated with noise exposure: enhances the hair cell damage and hearing loss associated with noise exposure
